In brackets after ≈: the same amount, converted by molar mass.
Columns and labels:
[1] = tested on: Leishmania braziliensis stationary promastigotes; assay: In vitro antileishmanial activity against promastigotes (MTT); assay type: cell-based
Description: The study was approved by the Committee for the Ethical Handling of Research Animals from the Federal University of Minas Gerais (protocol number 085/2017). Leishmania braziliensis (MHOM/BR/1975/M2904) promastigotes were grown at 24 °C in Schneider’s medium (Sigma-Aldrich, USA) supplemented with 20% heat-inactivated fetal bovine serum (FBS, Sigma-Aldrich, USA) and 20 mmol/L L-glutamine at pH 7.4 [65].
(§1) The in vitro antileishmanial activity was evaluated by incubating the promastigotes or axenic amastigotes (1 × 10^6 cells/well) with the 24 synthetic derivatives (Compounds 5–28; 0 to 600 µg/mL) in 96-well culture plates (Nunc, Nunclon, Roskilde, Denmark) for 48 h at 24 °C. Due to the difficulty in obtaining a high concentration of murine macrophages, the cytotoxicity experiment was evaluated by incubating such cells (5 × 10^5 per mL) with Compound 28 (0 to 600 µg/mL), which presented the best antileishmanial activity, for 48 h at 37 °C in a 5% CO2 environment. AmpB (0 to 10 µg/mL; Sigma-Aldrich, St. Louis, MO, USA) was used as a positive control in both experiments. The cell viability was assessed using the 3-(4.5-dimethylthiazol-2-yl)-2.5-diphenyl tetrazolium bromide (MTT, Sigma-Aldrich, St. Louis, MO, USA) method. The optical density (OD) values were read using a microplate spectrophotometer (Molecular Devices, Spectra Max Plus, San Jose, CA, USA) at 570 nm. Results were entered into Microsoft Excel (version 10.0) spreadsheets, and the 50% Leishmania and macrophage inhibitory concentrations (IC50 and CC50, respectively) were calculated by applying a sigmoidal regression of the dose–response curve. The SI was calculated by dividing the CC50 with the respective IC50 values.

[2] = tested on: Leishmania braziliensis axenic amastigotes; assay: In vitro antileishmanial activity against axenic amastigotes (MTT); assay type: cell-based
Description: To obtain the axenic amastigotes, 1 × 10^9 stationary promastigotes were washed three times in sterile phosphate-buffered saline (PBS) and incubated in 5 mL FBS for 48 h at 37 °C. Parasites were washed with cold PBS, and their morphology was evaluated with an optical microscope after Giemsa staining as previously described.
as §1

[3] = tested on: L. braziliensis promastigotes; assay: Membrane permeability evaluation (propidium iodide); assay type: cell-based, Leishmania braziliensis; conditions: one IC50 value, 48 h at 24 °C
Description: L. braziliensis promastigotes (1 × 10^7 cells/mL) were incubated with Compound 28 (at a concentration corresponding to one IC50 value) for 48 h at 24 °C. After washing with PBS, parasites (3 × 10^6 cells/well) were incubated with 1.0 µg/mL PI (Sigma-Aldrich, St. Louis, MO, USA) in the dark for 15 min. The samples were analyzed using a fluorometer microplate reader (FLx800, BioTek Instruments, Winooski, VT, USA), with excitation and emission wavelengths of […], respectively. Parasites that were killed by heating to 65 °C for 10 min were used as controls for the membrane permeabilization. Parasites that were untreated or treated with Compound 28 and not labeled with the fluorescent probe were used as the sample blank.
Figure 5 Effect of Compound 28 on parasite membrane permeability. Parasite promastigotes were either left untreated or treated with Compound 28 (at a concentration corresponding to the IC50 value) for 48 h. The PI dye fluorescence was measured fluorometrically at excitation and emission wavelengths of 540 and 600 nm, respectively. Parasites heated at 65 °C for 10 min were used as a positive control. The data is presented as the fold increase in PI fluorescence relative to the untreated control. (***), signifying p < 0.001, indicates a statistically significant difference compared with the non-treated control.

[4] = Cytotoxicity in mammalian cells (MTT); assay type: cell-based; conditions: mouse; murine macrophages, 48 h at 37 °C in 5% CO2, MTT, mean ± standard deviation
Description: as §1

IC50 ([1]; Leishmania braziliensis, 48 h at 24 °C, MTT, mean ± standard deviation): 106 ± 16.7 µg/mL (≈ 210 µM)
IC50 Axenic Amastigotes ([2]; 48 h at 24 °C, MTT, mean ± standard deviation): 87.8 ± 9.7 µg/mL (≈ 174 µM)
IC50 ([2]; Leishmania braziliensis, 48 h, 48 h at 24 °C, MTT, mean ± standard deviation): 88 ± 9.7 µg/mL (≈ 175 µM)
melting point: 197 to 198.4 °C
SMILES: CCN(CC)c1ccc2cc(-n3cc(CNC(=O)/C=C/c4ccc(OC)c(OC)c4)nn3)c(=O)oc2c1 [Compound 28, N-((1-(7-(diethylamino)-2-oxo-2H-chromen-3-yl)-1H-1,2,3-triazol-4-yl)methyl) (3,4-dimethoxy) cinnamide]
Selectivity index (SI), ratio CC50/IC50, promastigotes ([1]; CC50 murine macrophages / IC50 promastigotes): 11.1
Selectivity index (SI), ratio CC50/IC50, axenic amastigotes ([2]; CC50 murine macrophages / IC50 axenic amastigotes): 13.3
Fold increase in PI-fluorescence compared with untreated parasites [3]: 2.3 fold
CC50 at 48 h [4]: > 600 µg/mL
